In patent US12723063B2, “GIPR-agonist compounds” (Eli Lilly and Company, priority 2019, dated 2026):
*1 amine or outer side, *2 acyl side, *3 side chain or, on linkers, in order; H or OH if unused. Where a SMILES comes first, the peptide text is derived from it. Side-chain parts run from the residue outwards. [ ]: non-standard residue; d: D form. The star is where a group is joined. C20 diacid = O=C(O)CCCCCCCCCCCCCCCCCCC(=O)*; C18 diacid = O=C(O)CCCCCCCCCCCCCCCCC(=O)*; αMePhe(2-F) = C[C@](N)(Cc1ccccc1F)C(=O)O; γGlu = O=C(O)[C@H](CCC(=O)[*:2])N[*:1]; 4Pal = N[C@@H](Cc1ccncc1)C(=O)O; αMeL = CC(C)C[C@](C)(N)C(=O)O; Orn = NCCC[C@H](N)C(=O)O; AEEA = NCCOCCOCC(=O)O; Aib = CC(C)(N)C(=O)O

Assays:
Assay in all cases: cAMP functional assay (HTRF) in HEK293 cells in presence of 0.1% casein
Assay type in all cases: cell-based
[1] = target: T1, human GLP-1 receptor (GLP-1R) (Homo sapiens, UniProt P43220); settings: HEK293 cells expressing human GLP-1R, geometric mean, read-out: hGLP1R cAMP Rel EC50 nM (SEM, n)
T1 construct: expressed in transfected cells; host or cells: HEK293
T1 sequence (P43220 24-463): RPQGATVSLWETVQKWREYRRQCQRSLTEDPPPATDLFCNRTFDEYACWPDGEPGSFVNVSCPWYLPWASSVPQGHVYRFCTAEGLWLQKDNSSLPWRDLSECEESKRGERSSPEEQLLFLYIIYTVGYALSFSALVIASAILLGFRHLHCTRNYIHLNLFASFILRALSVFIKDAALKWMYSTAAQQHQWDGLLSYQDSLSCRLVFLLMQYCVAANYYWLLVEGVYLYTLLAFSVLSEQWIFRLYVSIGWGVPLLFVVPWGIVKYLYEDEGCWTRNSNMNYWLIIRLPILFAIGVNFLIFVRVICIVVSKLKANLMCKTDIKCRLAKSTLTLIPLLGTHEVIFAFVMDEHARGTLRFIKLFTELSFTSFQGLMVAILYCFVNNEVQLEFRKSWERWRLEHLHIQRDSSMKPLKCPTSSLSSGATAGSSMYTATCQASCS

[2] = target: T2, human glucagon receptor (GcgR) (Homo sapiens, UniProt P47871); settings: HEK293 cells expressing human GcgR, geometric mean, read-out: hGcgR cAMP Rel EC50 nM (SEM, n)
T2 construct: expressed in transfected cells; host or cells: HEK293
T2 sequence (P47871 26-477): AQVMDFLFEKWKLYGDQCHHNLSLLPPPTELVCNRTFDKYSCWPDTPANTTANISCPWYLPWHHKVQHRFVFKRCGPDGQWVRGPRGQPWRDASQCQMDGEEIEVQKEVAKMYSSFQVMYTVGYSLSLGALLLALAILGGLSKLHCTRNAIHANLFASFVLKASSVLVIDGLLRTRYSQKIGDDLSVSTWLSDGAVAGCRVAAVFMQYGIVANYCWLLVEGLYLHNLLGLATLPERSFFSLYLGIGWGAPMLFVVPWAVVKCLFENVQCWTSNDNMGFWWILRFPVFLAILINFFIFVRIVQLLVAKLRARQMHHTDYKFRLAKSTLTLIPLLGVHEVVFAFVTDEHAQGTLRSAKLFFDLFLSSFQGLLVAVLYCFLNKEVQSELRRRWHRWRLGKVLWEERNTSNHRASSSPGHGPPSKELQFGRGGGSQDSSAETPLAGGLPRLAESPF

[3] = target: T3, human glucose-dependent insulinotropic peptide receptor (GIPR) (Homo sapiens, UniProt P48546); settings: HEK293 cells expressing human GIPR, geometric mean, read-out: hGIPR cAMP Rel EC50 nM (SEM, n)
T3 construct: expressed in transfected cells; host or cells: HEK293
T3 sequence (P48546 22-466): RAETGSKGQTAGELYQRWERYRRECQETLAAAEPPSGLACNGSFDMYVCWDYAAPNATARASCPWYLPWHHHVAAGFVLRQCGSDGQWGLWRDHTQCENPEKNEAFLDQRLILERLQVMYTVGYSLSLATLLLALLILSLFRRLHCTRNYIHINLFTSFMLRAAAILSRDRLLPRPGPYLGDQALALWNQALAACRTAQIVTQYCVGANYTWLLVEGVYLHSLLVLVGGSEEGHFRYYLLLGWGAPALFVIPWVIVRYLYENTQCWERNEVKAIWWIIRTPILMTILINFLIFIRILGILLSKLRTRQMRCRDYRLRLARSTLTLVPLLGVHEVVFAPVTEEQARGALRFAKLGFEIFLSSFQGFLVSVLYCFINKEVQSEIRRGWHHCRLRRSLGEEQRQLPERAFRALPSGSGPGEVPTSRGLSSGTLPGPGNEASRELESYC

| Structure (SMILES) | EC50 [1] | EC50 [2] | EC50 [3] |
| --- | --- | --- | --- |
| CC[C@H](C)[C@H](NC(=O)[C@H](CCCN)NC(=O)[C@H](CC(=O)O)NC(=O)[C@H](CC(C)C)NC(=O)[C@](C)(CC(C)C)NC(=O)[C@@H](NC(=O)[C@H](CO)NC(=O)[C@H](Cc1ccc(O)cc1)NC(=O)[C@H](CC(=O)O)NC(=O)[C@H](CO)NC(=O)[C@@H](NC(=O)[C@H](Cc1ccccc1)NC(=O)[C@@H](NC(=O)CNC(=O)[C@H](CCC(=O)O)NC(=O)C(C)(C)NC(=O)[C@@H](N)Cc1ccc(O)cc1)[C@@H](C)O)[C@@H](C)CC)[C@@H](C)CC)C(=O)N[C@@H](Cc1c[nH]cn1)C(=O)N[C@@H](CCC(N)=O)C(=O)NC(C)(C)C(=O)N[C@@H](CCC(=O)O)C(=O)N[C@@H](Cc1ccccc1)C(=O)N[C@H](C(=O)N[C@@H](CCC(=O)O)C(=O)N[C@@H](Cc1ccncc1)C(=O)N[C@@H](CCCCNC(=O)COCCOCCNC(=O)COCCOCCNC(=O)CC[C@H](NC(=O)CCCCCCCCCCCCCCCCCCC(=O)O)C(=O)O)C(=O)N[C@@H](CC(C)C)C(=O)N[C@@H](CCC(=O)O)C(=O)N[C@@H](C)C(=O)NCC(=O)N1CCC[C@H]1C(=O)N[C@@H](CO)C(=O)N[C@@H](CO)C(=O)NCC(=O)N[C@@H](C)C(=O)N1CCC[C@H]1C(=O)N1CCC[C@H]1C(=O)N1CCC[C@H]1C(=O)N[C@@H](CO)C(N)=O)C(C)C [Example 122] (H-Y[Aib]EGTFISDYSI[αMeL]LD[Orn]IHQ[Aib]EFVE[4Pal]K([AEEA-AEEA-γGlu-C20 diacid])LEAGPSSGAPPPS-NH2) | > 5000 nM | > 5000 nM | 0.01 nM |
| CC[C@H](C)[C@H](NC(=O)[C@H](Cc1ccccc1)NC(=O)[C@@H](NC(=O)CNC(=O)[C@H](CCC(=O)O)NC(=O)C(C)(C)NC(=O)[C@@H](N)Cc1ccc(O)cc1)[C@@H](C)O)C(=O)N[C@@H](CO)C(=O)N[C@@H](CC(=O)O)C(=O)N[C@@H](Cc1ccc(O)cc1)C(=O)N[C@@H](CO)C(=O)N[C@H](C(=O)N[C@@](C)(CC(C)C)C(=O)N[C@@H](CC(C)C)C(=O)N[C@@H](CC(=O)O)C(=O)N[C@@H](CCCCN)C(=O)N[C@@H](CCCCNC(=O)COCCOCCNC(=O)COCCOCCNC(=O)CC[C@H](NC(=O)CCCCCCCCCCCCCCCCCCC(=O)O)C(=O)O)C(=O)N[C@@H](Cc1c[nH]cn1)C(=O)N[C@@H](CCC(N)=O)C(=O)NC(C)(C)C(=O)N[C@@H](CC(=O)O)C(=O)N[C@@H](Cc1ccccc1)C(=O)N[C@H](C(=O)N[C@@H](CCC(=O)O)C(=O)N[C@@H](Cc1ccncc1)C(=O)N[C@@H](CC(C)C)C(=O)N[C@@H](CC(C)C)C(=O)N[C@@H](C)C(=O)N[C@@H](CCC(N)=O)C(=O)NCC(=O)N1CCC[C@H]1C(=O)N[C@@H](CO)C(=O)N[C@@H](CO)C(=O)NCC(=O)N[C@@H](C)C(=O)N1CCC[C@H]1C(=O)N1CCC[C@H]1C(=O)N1CCC[C@H]1C(=O)N[C@@H](CO)C(N)=O)C(C)C)[C@@H](C)CC [Example 79] (H-Y[Aib]EGTFISDYSI[αMeL]LDKK([AEEA-AEEA-γGlu-C20 diacid])HQ[Aib]DFVE[4Pal]LLAQGPSSGAPPPS-NH2) | > 5000 nM | > 5000 nM | 0.0316 nM |
| CC[C@H](C)[C@H](NC(=O)[C@H](CCCN)NC(=O)[C@H](CC(=O)O)NC(=O)[C@H](CC(C)C)NC(=O)[C@](C)(CC(C)C)NC(=O)[C@@H](NC(=O)[C@H](CO)NC(=O)[C@H](Cc1ccc(O)cc1)NC(=O)[C@H](CC(=O)O)NC(=O)[C@H](CO)NC(=O)[C@@H](NC(=O)[C@H](Cc1ccccc1)NC(=O)[C@@H](NC(=O)CNC(=O)[C@H](CCC(=O)O)NC(=O)C(C)(C)NC(=O)[C@@H](N)Cc1ccc(O)cc1)[C@@H](C)O)[C@@H](C)CC)[C@@H](C)CC)C(=O)N[C@@H](Cc1c[nH]cn1)C(=O)N[C@@H](CCC(N)=O)C(=O)NC(C)(C)C(=O)N[C@@H](CCC(=O)O)C(=O)N[C@@H](Cc1ccccc1)C(=O)N[C@H](C(=O)N[C@@H](CCC(=O)O)C(=O)N[C@@H](Cc1ccc(O)cc1)C(=O)N[C@@H](CCCCNC(=O)COCCOCCNC(=O)COCCOCCNC(=O)CC[C@H](NC(=O)CCCCCCCCCCCCCCCCCCC(=O)O)C(=O)O)C(=O)N[C@@H](CC(C)C)C(=O)N[C@@H](CCC(=O)O)C(=O)NCC(=O)NCC(=O)N1CCC[C@H]1C(=O)N[C@@H](CO)C(=O)N[C@@H](CO)C(=O)NCC(=O)N[C@@H](C)C(=O)N1CCC[C@H]1C(=O)N1CCC[C@H]1C(=O)N1CCC[C@H]1C(=O)N[C@@H](CO)C(N)=O)C(C)C [Example 107] (H-Y[Aib]EGTFISDYSI[αMeL]LD[Orn]IHQ[Aib]EFVEYK([AEEA-AEEA-γGlu-C20 diacid])LEGGPSSGAPPPS-NH2) | > 5000 nM | > 5000 nM | 0.0199 nM |
| CC[C@H](C)[C@H](NC(=O)[C@H](CO)NC(=O)[C@H](Cc1ccc(O)cc1)NC(=O)[C@H](CC(=O)O)NC(=O)[C@H](CO)NC(=O)[C@@H](NC(=O)[C@](C)(Cc1ccccc1F)NC(=O)[C@@H](NC(=O)CNC(=O)[C@H](CCC(=O)O)NC(=O)[C@H](C)NC(=O)[C@@H](Cc1ccc(O)cc1)NC(C)=O)[C@@H](C)O)[C@@H](C)CC)C(=O)N[C@@H](C)C(=O)N[C@@H](CC(C)C)C(=O)N[C@@H](CC(=O)O)C(=O)N[C@@H](CCCCN)C(=O)N[C@@H](CCCCNC(=O)COCCOCCNC(=O)COCCOCCNC(=O)CC[C@H](NC(=O)CCCCCCCCCCCCCCCCC(=O)O)C(=O)O)C(=O)N[C@@H](Cc1c[nH]cn1)C(=O)N[C@@H](CCC(N)=O)C(=O)NC(C)(C)C(=O)N[C@@H](CCC(=O)O)C(=O)N[C@@H](Cc1ccccc1)C(=O)N[C@H](C(=O)N[C@@H](CC(N)=O)C(=O)N[C@@H](Cc1ccc(O)cc1)C(=O)N[C@@H](CC(C)C)C(=O)N[C@@H](CC(C)C)C(=O)N[C@@H](C)C(=O)NCC(=O)NCC(=O)N1CCC[C@H]1C(=O)N[C@@H](CO)C(=O)N[C@@H](CO)C(=O)NCC(=O)N[C@@H](C)C(=O)N1CCC[C@H]1C(=O)N1CCC[C@H]1C(=O)N1CCC[C@H]1C(=O)N[C@@H](CO)C(N)=O)C(C)C [Example 30] (Ac-[dY]AEGT[αMePhe(2-F)]ISDYSIALDKK([AEEA-AEEA-γGlu-C18 diacid])HQ[Aib]EFVNYLLAGGPSSGAPPPS-NH2) | > 5000 nM | > 5000 nM | 0.00572 nM |
| CC[C@H](C)[C@H](NC(=O)[C@H](CO)NC(=O)[C@H](Cc1ccc(O)cc1)NC(=O)[C@H](CC(=O)O)NC(=O)[C@H](CO)NC(=O)[C@@H](NC(=O)[C@H](Cc1ccccc1)NC(=O)[C@@H](NC(=O)CNC(=O)[C@H](CCC(=O)O)NC(=O)[C@@H](C)NC(=O)[C@@H](N)Cc1ccc(O)cc1)[C@@H](C)O)[C@@H](C)CC)C(=O)N[C@@H](CC(C)C)C(=O)N[C@@H](CC(C)C)C(=O)N[C@@H](CC(=O)O)C(=O)N[C@@H](CCCCN)C(=O)N[C@@H](CCCCNC(=O)COCCOCCNC(=O)COCCOCCNC(=O)CC[C@H](NC(=O)CCCCCCCCCCCCCCCCC(=O)O)C(=O)O)C(=O)N[C@@H](C)C(=O)N[C@@H](CCC(N)=O)C(=O)NC(C)(C)C(=O)N[C@@H](CCC(=O)O)C(=O)N[C@@H](Cc1ccccc1)C(=O)N[C@H](C(=O)N[C@@H](CC(N)=O)C(=O)N[C@@H](Cc1c[nH]c2ccccc12)C(=O)N[C@@H](CC(C)C)C(=O)N[C@@H](CC(C)C)C(=O)N[C@@H](C)C(=O)N[C@@H](CCC(N)=O)C(=O)NCC(=O)N1CCC[C@H]1C(=O)N[C@@H](CO)C(=O)N[C@@H](CO)C(=O)NCC(=O)N[C@@H](C)C(=O)N1CCC[C@H]1C(=O)N1CCC[C@H]1C(=O)N1CCC[C@H]1C(=O)N[C@@H](CO)C(N)=O)C(C)C [Example 20] (H-Y[dA]EGTFISDYSILLDKK([AEEA-AEEA-γGlu-C18 diacid])AQ[Aib]EFVNWLLAQGPSSGAPPPS-NH2) | > 5000 nM | > 5000 nM | 0.00933 nM |
| CC[C@H](C)[C@H](NC(=O)[C@H](CO)NC(=O)[C@H](Cc1ccc(O)cc1)NC(=O)[C@H](CC(=O)O)NC(=O)[C@H](CO)NC(=O)[C@@H](NC(=O)[C@H](Cc1ccccc1)NC(=O)[C@@H](NC(=O)CNC(=O)[C@H](CCC(=O)O)NC(=O)[C@@H](C)NC(=O)[C@@H](N)Cc1ccc(O)cc1)[C@@H](C)O)[C@@H](C)CC)C(=O)N[C@@H](CC(C)C)C(=O)N[C@@H](CC(C)C)C(=O)N[C@@H](CC(=O)O)C(=O)N[C@@H](CCCCN)C(=O)N[C@@H](CCCCNC(=O)COCCOCCNC(=O)COCCOCCNC(=O)CC[C@H](NC(=O)CCCCCCCCCCCCCCCCCCC(=O)O)C(=O)O)C(=O)N[C@@H](Cc1c[nH]cn1)C(=O)N[C@@H](CCC(N)=O)C(=O)N[C@@H](CCC(N)=O)C(=O)N[C@@H](CC(=O)O)C(=O)N[C@@H](Cc1ccccc1)C(=O)N[C@H](C(=O)N[C@@H](CC(N)=O)C(=O)N[C@@H](Cc1c[nH]c2ccccc12)C(=O)N[C@@H](CC(C)C)C(=O)N[C@@H](CC(C)C)C(=O)N[C@@H](C)C(=O)NCC(=O)NCC(=O)N1CCC[C@H]1C(=O)N[C@@H](CO)C(=O)N[C@@H](CO)C(=O)NCC(=O)N[C@@H](C)C(=O)N1CCC[C@H]1C(=O)N1CCC[C@H]1C(=O)N1CCC[C@H]1C(=O)N[C@@H](CO)C(N)=O)C(C)C [Example 10] (H-Y[dA]EGTFISDYSILLDKK([AEEA-AEEA-γGlu-C20 diacid])HQQDFVNWLLAGGPSSGAPPPS-NH2) | > 100 nM | > 5000 nM | 0.611 nM |
